Test results taken from PMC7738871, “Covalent modification of Keap1 at Cys77 and Cys434 by pubescenoside a suppresses oxidative stress-induced NLRP3 inflammasome activation in myocardial ischemia-reperfusion injury” (Theranostics, 2021).

Tests used:
[1] = test system: Nrf2-/- mice under AMI/R injury; assay: LAD-induced AMI/R in Nrf2-/- mice; format: in vivo, mouse
Protocol: The experimental procedures and protocols were approved by the Committee on Ethical USE of Animals of International Institute for Translational Chinese Medicine, Guangzhou University of Chinese Medicine (No. IITCM-20180115). Adult male C57BL/6 mice were purchased from the Laboratory Animal Center, Sun Yat-Sen University (Guangzhou, Guangdong, China), and Nrf2 knockout mice were obtained from Riken. Adult male C57BL/6 or Nrf2 knockout mice were treated with 30 mg/kg PBA or an equal volume of vehicle 15 min prior to reperfusion. Mice were divided into 6 groups: (1) Wild-type sham (n = 10): C57BL/6 mice received vehicle, as the sham group; (2) Wild-type AMI/R group (n = 10): C57BL/6 mice received vehicle (i.p.) 15 min before reperfusion; (3) Wild-type AMI/R plus PBA group (n = 10): C57BL/6 mice received 30 mg/kg PBA (i.p.) 15 min before reperfusion; (4) Nrf2 knockout sham (n = 8) : Nrf2 knockout mice received vehicle (i.p.), as in the sham group; (5) Nrf2 knockout AMI/R group (n = 8): Nrf2 knockout mice received vehicle (i.p.) 15 min before reperfusion; (6) Nrf2 knockout AMI/R plus PBA group (n = 8): Nrf2 knockout mice received 30 mg/kg PBA (i.p.) 15 min before reperfusion. PBA was dissolved in 0.9% NaCl buffer containing 2% EtOH. The vehicle was 0.9% NaCl buffer containing 2% EtOH.
The C57BL/6 mice or Nrf2 knockout mice underwent myocardial ischemia-reperfusion injury as described previously. In brief, mice were anaesthetized by i.p. injection of sodium pentobarbital at a dose of 50 mg/kg and ventilated under a pressure-control VentStar R415 ventilator (RWD Life Science Inc., Shenzhen, China). Following thoracotomy between the 3rd and 4th intercostal spaces, the mouse heart was exposed. The LAD was ligated with an 8-0 silk suture and the PE10 tube for 30 min. PBA and vehicle were i.p. injected 15 min prior to reperfusion. After 30 min of ischemia, the suture with PE10 tube was removed. At the end of 24 h of reperfusion, the LAD was relegated, and 1% Evans blue dye was injected to measure the area at risk (AAR). The hearts of the mice were collected, and frozen at -80 °C for 10 min and cut into 5 slices. The slices were incubated with 1% 2,3,5-triphenyltetrazolium chloride (TTC, Santa Cruz, USA) at 37 °C for 15 min and fixed with 4% paraformaldehyde overnight. The slices were captured and the areas of AAR and IA were quantified by using ImageJ software.
Hemodynamic measurements were performed using a PV-loop catheter (Transonic Systems Inc., Ithaca, NY, USA). Hemodynamic measurements were analysed using Ponemah 7700 modules software according to a standardized protocol. The maximum rate of rise of left ventricular pressure increase (+dp/dtmax) and the maximum rate of rise of left ventricular pressure decrease (-dp/dtmax) were calculated for all mice.

[2] = test system: T1, Keap1; assay: Pull-down with PBA-Sepharose 4B beads, cell lysate; format: binding; conditions: 4 °C, immunoblot, Sepharose 4B beads only as negative control
T1 construct: endogenous in cells; host or cells: RAW264.7
Protocol: PBA-Sepharose 4B beads were created by dissolving PBA in coupling buffer (100 mM NaHCO3, pH 8.3, 0.5 M NaCl). After washing with 1 mM HCl medium, Sepharose 4B beads were mixed with PBA coupling buffer and slowly rotated overnight at 4 °C. Excess PBA was washed away with coupling buffer and any remaining active groups were blocked with 0.1 M Tris-HCl buffer (pH 8.0) for 2 h. The medium was then washed with 0.1 M acetate buffer (pH 4.0) containing 0.5 M NaCl followed by a wash with 0.1 M Tris-HCl (pH 8.0) that also contained 0.5 M NaCl. PBA-Sepharose 4B beads were ready for use in the pull-down assay. The RAW264.7 cellular supernatant fraction (600 µg) was incubated with either PBA-Sepharose 4B or Sepharose 4B as a negative control in reaction buffer (50 mM Tris-HCl, pH 7.5, 5 mM EDTA, 150 mM NaCl, 1 mM DTT, 0.01% NP-40, 2 µg/mL of BSA, 0.02 mM PMSF, 1 × protease inhibitor cocktail). After incubation with gentle rocking overnight at 4 °C, the beads were washed five times with wash buffer (50 mM Tris-HCl, pH 7.5, 5 mM EDTA, 150 mM NaCl, 1 mM DTT, 0.01% NP-40, 0.02 mM PMSF) and proteins bound to the beads were analyzed by immunoblotting assay with a Keap1 antibody.

[3] = test system: H9c2 cells; assay: MTT cytotoxicity, H9c2; format: cell-based, rat; conditions: under 240 μM, 48 h
Protocol: Cell viability was determined by MTT assays. PBA was prepared to a stock solution dissolved in dimethyl sulfoxide (DMSO). RAW264.7, H9c2 cells, primary mouse cardiomyocytes were treated with different doses of PBA, and DMSO only as control for 48 h for the toxicity. In addition, H9c2 cells or primary mouse cardiomyocytes were treated with the indicated doses of PBA, diazoxide as positive control, DMSO only as control, then cultured with or without OGD/R treatment. At the end of the experiments, MTT was added into each well at the concentration of 0.5 mg/ml, and incubated at 37 °C for 4 h. After removal of the supernatant, 150 μL of DMSO was added to solubilize the formazan products. And the solution was measured at the absorbance of 490 nm by a spectrophotometer (Thermo Fisher Scientific, MA, USA). The results of the MTT assay in all groups were normalized to the control group with DMSO only treatment.

C=C(COC(=O)C=Cc1ccc(O)c(O)c1)C(O)COC1OC(CO)C(O)C(O)C1O (stereo not shown) [PBA, pubescenoside A]
inflammatory cells infiltration and disturbed myofibrillar structure (H&E staining) [1]: could not suppress | cardioprotective effect ([1]; 30 mg/kg i.p., AMI/R): disappeared | decrease effect of CK-MB level ([1]; 30 mg/kg i.p., AMI/R): blocked | increase effect of -dp/dtmax and -dp/dtmax ([1]; 30 mg/kg i.p., AMI/R): blocked | suppressive effect on the NLRP3 inflammasome in heart tissue ([1]; WB analysis): blocked | binding of Keap1 to PBA-Sepharose 4B beads (pull-down) [2]: could bind | cell toxicity (MTT) [3]: did not exhibit any cell toxicity
